In US20060276537A1, “Use of ladostigil for the treatment of multiple sclerosis” (priority 2005, published 2006):
Read-outs that look alike come from different tables or passages of the source.

Key:
Format in all cases: in vivo
[1] = system: relapsing remitting EAE in 129/SvEv mice; assay: MOG-induced relapsing remitting EAE in 129/SvEv mice
Description: This experiment is conducted to evaluate whether ladostigil tartrate is effective in alleviating EAE. EAE is induced in mice by the administration of myelin oligodendrocyte glycoprotein (MOG). Injection of MOG into 129/SvEv mice produces a relapsing remitting EAE (murine model of relapsing remitting multiple sclerosis).
One week before MOG immunization, 129/SvEv mice receive a sub-optimal dose of ladostigil tartrate or saline vehicle. Over a period of 1-2 months following MOG immunization, clinical scores are monitored by weighing animals on a daily basis and grading the severity of EAE. In addition to clinical evaluation, groups of mice are sacrificed at weekly intervals for routine histological examination (hematoxylin-eosin and luxol fast blue for evidence of inflammation and demyelination, respectively). Also, cellular infiltrates are examined for CD3 (T lymphocytes), CD56 (natural killer cells) and CD19 (B cell immunohistochemistry). Loss of neurons and oligodendrocytes is assessed using immunohistochemistry for NeuN and glutathione-S-transferase pi isoform, respectively. Furthermore, axonal integrity is examined using immunohistochemistry for β-amyloid precursor protein or neurofilament, and by Bielchowsky silver stains. The neuropathological assessments are focused on the optic nerve, lumbar/sacral cord and brain stem.

[2] = target: T1, butyrylcholinesterase (BChE) (Mus musculus, UniProt Q03311); assay: Cholinesterase assay (modified Ellman, BTC substrate) in brain and blood of treated EAE mice; conditions: for Brain BuChE U/g: results on the limit of assay sensitivity; for inhibition at 10.2 mg/kg / inhibition at 25.5 mg/kg / inhibition at 51 mg/kg / inhibition at 70.1 mg/kg: mouse
T1 construct: Homogenate of 100 mg brain tissue in 1 ml 100 mM phosphate buffer pH=8.0 was prepared; from tissue; host or cells: brain homogenate and blood hemolysate of ladostigil-treated EAE mice
Description: From the mice of Example 2, acetylcholinesterase (AChE) and butyrylcholinesterase (BChE) activities were determined by a modification of Ellman's spectophotometric method using acetyltiocholine (ATC) and butyryltiocholine (BTC) as substrates.
Homogenate of 100 mg brain tissue in 1 ml 100 mM phosphate buffer pH=8.0 was prepared. 0.4 ml of crude homogenate was added to 1.2 ml pre-warmed 4 mM 5,5′-Dithiobis(2-nitrobenzoic acid) (DTNB or Ellman's reagant); 30 μl from this mixture were added to 210 μl pre-warmed (28° C.) 50 mM phosphate buffer in a microplate; and the reaction was started by addition of 10 μl ATC or BTC (final concentration=1 mM) or water (for the blank reaction) The increase in optical density (OD) at 412 nm was monitored for 3 minutes and the slope of the straight line obtained by linear regression provided the activity in terms of ΔOD/min using SOFTMAX® software. Blank reaction was subtracted.
Conversion of ΔOD/min into Enzyme Activity was Performed as Follows: Unit enzyme/gram tissue=OD/min*0.25/10.54*4*1000/30*11
The same procedure was performed as with brain homogenate using 50 μl of ¼ hemolysate/DTNB mixture.
Enzyme activity in the blood was calculated in units/1 ml whole blood.
BuChE activity was calculated directly from the ΔOD/min of BTC.

MAO-B = target: T2, MAO-B (Mus musculus, UniProt Q8BW75); assay: MAO assay (14C PEA substrate) in brains of treated EAE mice
T2 construct: in the brains of EAE mice; from tissue; host or cells: brain homogenate of ladostigil-treated EAE mice
T2 sequence (Q8BW75 1-520): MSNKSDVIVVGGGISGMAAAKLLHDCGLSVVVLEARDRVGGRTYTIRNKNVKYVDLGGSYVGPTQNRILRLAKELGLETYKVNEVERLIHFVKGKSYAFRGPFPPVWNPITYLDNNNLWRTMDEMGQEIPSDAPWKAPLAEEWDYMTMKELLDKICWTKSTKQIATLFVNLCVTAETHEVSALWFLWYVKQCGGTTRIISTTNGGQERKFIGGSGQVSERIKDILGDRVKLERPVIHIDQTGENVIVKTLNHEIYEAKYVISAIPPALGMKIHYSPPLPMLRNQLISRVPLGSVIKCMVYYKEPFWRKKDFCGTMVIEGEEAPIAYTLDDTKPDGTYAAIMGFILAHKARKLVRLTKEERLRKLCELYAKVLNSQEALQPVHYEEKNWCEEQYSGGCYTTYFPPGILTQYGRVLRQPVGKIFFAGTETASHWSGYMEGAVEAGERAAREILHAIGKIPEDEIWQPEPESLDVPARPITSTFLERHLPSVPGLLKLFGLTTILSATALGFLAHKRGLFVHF
Description: From the mice of Example 2, the level of MAO (MAO-A and MAO-B) inhibition was determined using ^14C-Labeled 2-phenylethylamine and 5-hydroxytryptamine as substrates.
The MAO enzyme obtained from a homogenate of rat brain in 0.3M sucrose, which was centrifuged at 600 g for 15 minutes. The supernatant is diluted appropriately in 0.05M phosphate buffer, and pre-incubated with serial dilutions of test compounds for 20 minutes at 37° C. ^14C-Labeled substrates (2-phenylethylamine, hereinafter PEA; 5-hydroxytryptamine, hereinafter 5-HT) are then added, and the incubation continued for a further 20 minutes (PEA), or 30-45 minutes (5-HT). Substrate concentrations used are 50 μM (PEA) and 1 mM (5-HT). In the case of PEA, enzyme concentration is chosen so that not more than 10% of the substrate is metabolized during the course of the reaction. Deaminated products are extracted into toluene-ethyl acetate (1:1 v/v) containing 0.6% (w/v) 2,5-diphenyloxazole (ppo) prior to determination by liquid scintillation counting. Radioactivity in the eluate indicates the production of neutral and acidic metabolites formed as a result of MAO activity. Activity of MAO in the sample is expressed as a percentage of control activity in the absence of inhibitors after subtraction of appropriate blank values. The activity determined using PEA as substrate is referred to as MAO-B, and that determined using 5-HT as MAO-A. Concentrations of inhibitor producing 50% inhibition of substrate metabolism (IC50) are calculated from the inhibition curves.

[3] = sub-optimal dose from one week before MOG immunization, vs saline vehicle

T1 sequence (Q03311 30-603): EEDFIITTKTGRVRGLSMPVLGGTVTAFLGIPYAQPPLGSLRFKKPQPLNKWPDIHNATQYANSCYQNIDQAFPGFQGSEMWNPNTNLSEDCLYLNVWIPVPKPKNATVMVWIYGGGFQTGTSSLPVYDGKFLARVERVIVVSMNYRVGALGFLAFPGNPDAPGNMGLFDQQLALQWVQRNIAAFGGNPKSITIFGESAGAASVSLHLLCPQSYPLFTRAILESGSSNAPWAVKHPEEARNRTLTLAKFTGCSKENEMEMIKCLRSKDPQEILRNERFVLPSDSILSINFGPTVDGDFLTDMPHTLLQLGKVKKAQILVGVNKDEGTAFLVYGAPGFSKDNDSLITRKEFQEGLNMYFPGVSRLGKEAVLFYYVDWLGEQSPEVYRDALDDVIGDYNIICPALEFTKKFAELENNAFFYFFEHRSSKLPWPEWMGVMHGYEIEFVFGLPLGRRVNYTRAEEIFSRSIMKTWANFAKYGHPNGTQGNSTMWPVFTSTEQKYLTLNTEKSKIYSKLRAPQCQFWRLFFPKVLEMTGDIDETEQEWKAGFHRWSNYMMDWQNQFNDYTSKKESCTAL

C#CCN[C@@H]1CCc2ccc(OC(=O)N(C)CC)cc21 [Ladostigil, R(+)-6-(N-methyl,N-ethyl-carbamoyloxy)-N′-propargyl-1-aminoindan]
incidence and severity of EAE ([1]; compared to control): decreases both the incidence and severity of EAE
area under the curve (clinical score) [1, 3]: smaller area under the curve
clinical score [1, 3]: lower clinical score
BChE inhibition ([2]; 51 and 70.1 mg/kg/day, brain and blood): 35-42%
Blood BuChE U/ml ([2]; blood of EAE mice, 10.2 mg/kg salt): 1.52 +/− 0.24 U/ml
Blood BuChE U/ml ([2]; blood of EAE mice, 25.5 mg/kg salt): 1.47 +/− 0.18 U/ml
Blood BuChE U/ml ([2]; blood of EAE mice, 51 mg/kg salt): 1.06 +/− 0.21 U/ml
Blood BuChE U/ml ([2]; blood of EAE mice, 70.1 mg/kg salt): 1.01 +/− 0.18 U/ml
Brain BuChE U/g ([2]; brain of EAE mice, 10.2 mg/kg salt): 0.35 +/− 0.04 U/g
Brain BuChE U/g ([2]; brain of EAE mice, 25.5 mg/kg salt): 0.31 +/− 0.04 U/g
Brain BuChE U/g ([2]; brain of EAE mice, 51 mg/kg salt): 0.22 +/− 0.03 U/g
Brain BuChE U/g ([2]; brain of EAE mice, 70.1 mg/kg salt): 0.25 +/− 0.06 U/g
inhibition at 10.2 mg/kg ([2]; blood of EAE mice, 10.2 mg/kg salt, read-out: Blood BchE % inhibition): 6.7%
inhibition at 25.5 mg/kg ([2]; blood of EAE mice, 25.5 mg/kg salt, read-out: Blood BchE % inhibition): 10.1%
inhibition at 51 mg/kg ([2]; blood of EAE mice, 51 mg/kg salt, read-out: Blood BchE % inhibition): 35.3%
inhibition at 70.1 mg/kg ([2]; blood of EAE mice, 70.1 mg/kg salt, read-out: Blood BchE % inhibition): 38.4%
inhibition at 10.2 mg/kg ([2]; brain of EAE mice, 10.2 mg/kg salt, read-out: Brain BchE % inhibition): 7.9%
inhibition at 25.5 mg/kg ([2]; brain of EAE mice, 25.5 mg/kg salt, read-out: Brain BchE % inhibition): 18.4%
inhibition at 51 mg/kg ([2]; brain of EAE mice, 51 mg/kg salt, read-out: Brain BchE % inhibition): 42.1%
inhibition at 70.1 mg/kg ([2]; brain of EAE mice, 70.1 mg/kg salt, read-out: Brain BchE % inhibition): 34.2%
inhibition of MAO-B (MAO-B; 51 and 70.1 mg/kg/day, brain): 81-89%
MAO-B activity dpm (MAO-B; brain of EAE mice, 10.2 mg/kg): 8784 +/− 1047 dpm
MAO-B activity dpm (MAO-B; brain of EAE mice, 25.5 mg/kg): 4258 +/− 467 dpm
MAO-B activity dpm (MAO-B; brain of EAE mice, 51 mg/kg): 2424 +/− 1122 dpm
MAO-B activity dpm (MAO-B; brain of EAE mice, 70.1 mg/kg): 1382 +/− 250 dpm
inhibition at 10.2 mg/kg (MAO-B; mouse, brain of EAE mice, 10.2 mg/kg): 32%
inhibition at 25.5 mg/kg (MAO-B; mouse, brain of EAE mice, 25.5 mg/kg): 67%
inhibition at 51 mg/kg (MAO-B; mouse, brain of EAE mice, 51 mg/kg): 81%
inhibition at 70.1 mg/kg (MAO-B; mouse, brain of EAE mice, 70.1 mg/kg): 89%
